According to publication PMC10099721, “Substrate Induced Movement of the Metal Cofactor between Active and Resting State” (Angewandte Chemie (International Ed. in English), 2022):

Key:
Format in all cases: binding
[1] = biological target: T1, SwHKA (hydroxyketoacid aldolase from Sphingomonas wittichii RW1) (Rhizorhabdus wittichii, UniProt A0A9J9HGY6); test: X-ray crystal structure; conditions: with hydroxypyruvate in the active site; H-bonds to R69 and R120'
T1 construct: gene Swit_5035; N-terminal His6-tag, E. coli BL21(DE3), 251 residues per monomer, homohexamer (trimer of domain-swapped dimers), divalent metal dependent

[2] = biological target: T2, SwHKA (hydroxyketoacid aldolase from Sphingomonas wittichii RW1) (Rhizorhabdus wittichii, UniProt A0A9J9HGY6, S116C); test: nanoDSF melting temperature; conditions: absolute Tm, not a shift; MgCl2 10 mM, hydroxypyruvate 20 mM, Hepes 20 mM pH 7.5
T2 construct: gene Swit_5035; N-terminal His6-tag, E. coli BL21(DE3), 251 residues per monomer, homohexamer (trimer of domain-swapped dimers), divalent metal dependent

[3] = biological target: T3, SwHKA (hydroxyketoacid aldolase from Sphingomonas wittichii RW1) (Rhizorhabdus wittichii, UniProt A0A9J9HGY6, S116A); test: X-ray crystal structure; conditions: bound to the active-state metal, distorted geometry
T3 construct: gene Swit_5035; N-terminal His6-tag, E. coli BL21(DE3), 251 residues per monomer, homohexamer (trimer of domain-swapped dimers), divalent metal dependent

[4] = biological target: T4, SwHKA (hydroxyketoacid aldolase from Sphingomonas wittichii RW1) (Rhizorhabdus wittichii, UniProt A0A9J9HGY6, F210W); test: X-ray crystal structure, […] A, soaked crystal; conditions: MgCl2 soak; bound in monomer B only; PDB id printed as 7OBU in the text but 7O87 (as F201W-HPA) in the Figure 2 legend
T4 construct: gene Swit_5035; N-terminal His6-tag, E. coli BL21(DE3), 251 residues per monomer, homohexamer (trimer of domain-swapped dimers), divalent metal dependent
T4 sequence (A0A9J9HGY6 whole entry F210W, the tested form may be a part): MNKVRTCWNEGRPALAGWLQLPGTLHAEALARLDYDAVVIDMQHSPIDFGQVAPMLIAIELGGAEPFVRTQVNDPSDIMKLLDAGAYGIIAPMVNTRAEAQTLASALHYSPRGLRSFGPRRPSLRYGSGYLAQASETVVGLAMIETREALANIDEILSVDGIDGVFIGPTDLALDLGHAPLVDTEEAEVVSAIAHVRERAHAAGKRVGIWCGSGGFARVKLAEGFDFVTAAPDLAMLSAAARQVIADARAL

T1 sequence (A0A9J9HGY6 whole entry, the tested form may be a part): as the sequence (A0A9J9HGY6 whole entry F210W, the tested form may be a part) above, with W210F counted along it
T2 sequence (A0A9J9HGY6 whole entry S116C, the tested form may be a part): as the sequence (A0A9J9HGY6 whole entry F210W, the tested form may be a part) above, with S116C, W210F counted along it
T3 sequence (A0A9J9HGY6 whole entry S116A, the tested form may be a part): as the sequence (A0A9J9HGY6 whole entry F210W, the tested form may be a part) above, with S116A, W210F counted along it

| Tm [2] [°C] | Structure (SMILES) | X-ray crystal structure [1] | X-ray crystal structure [3] | X-ray crystal structure, 1.2 A, soaked crystal [4] |
| --- | --- | --- | --- | --- |
| – | O=C[C@H](O)CO [D-glyceraldehyde] | Close‐up view of the active site of SwHKA with DGA bound (PDBID 8ADQ) | – | – |
| 73 | O=C(O)C(=O)CO [hydroxypyruvate] | – | showed a strangely distorted geometry (Figure S13, S116A‐HPA PDBID 7NNK) | crystal structure of variant F210W soaked with MgCl2 and hydroxypyruvate could now be solved |
